# Measurements published in patent publication US10633376B2, “Crystalline forms of JAK1-selective inhibitor, processes for preparation and use thereof” (Crystal Pharmaceutical (Suzhou) Co., Ltd., priority 2016, dated 2020).
# “Also recorded” adds a separate entry of the source. Read-outs that look alike come from different tables or passages of the source.
# What was measured:
# [1] = clinical trials by Gilead; cited from earlier work
# [2] = 92.5% humidity for 5 days and 10 days, XRPD; cited from earlier work
# [3] = prior art patents; cited from earlier work
# [4] = Solubility comparison study, saturated solutions measured by HPLC; type: physicochemical; conditions: for Solubility in FaSSIF 1 h: FaSSIF pH=6.5, 1 h; for Solubility in FaSSIF 4 h: FaSSIF pH=6.5, 4 h; for Solubility in FaSSIF 24 h: FaSSIF pH=6.5, 24 h
# Procedure: Saturated solutions of Form CS1, Form CS2 of the present disclosure and Pattern 4 in patent CN105960407A (hereinafter referred to as patent Pattern 4) were prepared in SGF (simulated gastric fluids), FeSSIF (fed state simulated intestinal fluids, pH=5.0), FaSSIF (fasted state simulated intestinal fluids, pH=6.5) and pure water. After equilibrated for 1 h, 4 h and 24 h, concentrations of the saturated solutions were measured by HPLC.
# [5] = Stability study of crystalline form on storage, XRPD; type: physicochemical; conditions: 3 weeks
# Procedure: Form CS1 of the present disclosure was stored under 25° C./60% RH and 40° C./75% RH for 3 weeks. Form CS2 of the present disclosure was stored under 25° C./60% RH, 40° C./75% RH and 60° C./75% RH for 3 weeks.
# [6] = Mechanical stability study, XRPD before and after grinding; type: physicochemical
# Source text: XRPD was applied to test the crystalline forms of Form CS2, Form CS3 and Pattern 4 in patent CN105960407A before and after grinding. The test results were shown in FIG. 20, FIG. 21 and FIG. 22.
# [7] = Hygroscopicity by dynamic vapor sorption (DVS); type: physicochemical
# Procedure: Dynamic Vapor Sorption (DVS) is measured via a SMS (Surface Measurement Systems Ltd.) intrinsic DVS instrument. Its control software is DVS-Intrinsic control software, and its analysis software is DVS-Intrinsic Analsis software. Typical Parameters for DVS test are as follows:
# Gas and flow rate: N2, 200 mL/min
# RH range: 0% RH to 95% RH
# Dynamic vapor sorption (DVS) was applied to test hygroscopicity of Form CS2 and Pattern 4 in patent CN105960407A (hereinafter referred to as patent Pattern 4) on about 10 mg of samples. The weight gains at each relative humidity were recorded in a cycle of 0-95%-0 RH.
smiles,measurement,setting,value
"O=C(Nc1nc2cccc(-c3ccc(CN4CCS(=O)(=O)CC4)cc3)n2n1)C1CC1 [Filgotinib, N-[5-[4-[(1,1-dioxo-1-thiomorpholin-4-yl)methyl]phenyl][1,2,4]triazolo [1,5-a]pyridin-2-yl]cyclopropanecarboxamide]",Anemia and abnormal increase in low density lipoprotein (LDL),[1],does not cause an anemia and abnormal increase in low density lipoprotein (LDL)
O=C(Nc1nc2cccc(-c3ccc(CN4CCS(=O)(=O)CC4)cc3)n2n1)C1CC1 [Form B of free form],Stability,[2],Stability is poor. Sample was tested by XRPD after being
same,Solubility in water,[3],"The solubility in water is 41.28 μg/mL. The yield is low,"
O=C(Nc1nc2cccc(-c3ccc(CN4CCS(=O)(=O)CC4)cc3)n2n1)C1CC1 [Form C of free form],Stability,[2],Stability is poor. Sample was tested by XRPD after being
same,Solubility in water,[3],The solubility in water is 42.22 μg/mL. The yield is low
O=C(Nc1nc2cccc(-c3ccc(CN4CCS(=O)(=O)CC4)cc3)n2n1)C1CC1 [Form CS1],Solubility in FaSSIF 1 h,[4],120 µg/mL
same,Solubility in FaSSIF 4 h,[4],110 µg/mL
same,Solubility in FaSSIF 24 h,[4],120 µg/mL
same,Solubility in SGF 1 h,[4]; SGF (pH=1.8),3230 µg/mL
same,Solubility in SGF 4 h,"[4]; SGF (pH=1.8), 4 h",3300 µg/mL
same,Solubility in SGF 24 h,"[4]; SGF (pH=1.8), 24 h",820 µg/mL
same,solubility at 1 h,"[4]; fed state simulated intestinal fluid (FeSSIF), pH 5, fessif, thermodynamic from solid, FeSSIF pH=5.0, 1 h",200 µg/mL
same,solubility at 4 h,"[4]; fed state simulated intestinal fluid (FeSSIF), pH 5, fessif, thermodynamic from solid, FeSSIF pH=5.0, 4 h, read-out: Solubility in FeSSIF 4 h",200 µg/mL
same,solubility at 24 h,"[4]; fed state simulated intestinal fluid (FeSSIF), pH 5, fessif, thermodynamic from solid, FeSSIF pH=5.0, 24 h, read-out: Solubility in FeSSIF 24 h",250 µg/mL
same,Solubility in water 1 h,[4]; pure water,120 µg/mL
same,Solubility in water 4 h,"[4]; pure water, 4 h",90 µg/mL
same,Solubility in water 24 h,"[4]; pure water, 24 h",210 µg/mL
same,Solid form change,[5]; 25° C./60% RH,doesn't change; also recorded: No form change of Form CS1
same,Solid form change,[5]; 40° C./75% RH,doesn't change; also recorded: No form change of Form CS1
O=C(Nc1nc2cccc(-c3ccc(CN4CCS(=O)(=O)CC4)cc3)n2n1)C1CC1 [Form CS2],Mechanical stability (crystalline form after grinding),[6],better mechanical stabilities; also recorded: don't change after grinding; also recorded: without crystal transformation observed during grinding
same,Hygroscopicity class,"[7]; 80% RH, Chinese Pharmacopoeia 2015 definition",almost non-hygroscopic; also recorded: almost no hygroscopic
same,Form change after DVS,[7]; XRPD before and after DVS cycle 0-95%-0 RH,no form change was observed
same,Solubility in FaSSIF 1 h,[4],50 µg/mL
same,Solubility in FaSSIF 4 h,[4],50 µg/mL
same,Solubility in FaSSIF 24 h,[4],40 µg/mL
same,Solubility in FeSSIF 1 h,"[4]; FeSSIF pH=5.0, 1 h",90 µg/mL
same,Solubility in FeSSIF 4 h,"[4]; FeSSIF pH=5.0, 4 h",100 µg/mL
same,Solubility in FeSSIF 24 h,"[4]; FeSSIF pH=5.0, 24 h",80 µg/mL
same,Solubility in SGF 1 h,[4]; SGF (pH=1.8),1310 µg/mL
same,Solubility in SGF 4 h,"[4]; SGF (pH=1.8), 4 h",1320 µg/mL
same,Solubility in water 1 h,[4]; pure water,40 µg/mL
same,Solubility in water 24 h,"[4]; pure water, 24 h",40 µg/mL
same,solubility at 4 h,"[4]; pure water, water, thermodynamic from solid, pure water, 4 h, read-out: Solubility in water 4 h",40 µg/mL
same,solubility at 24 h,"[4]; simulated gastric fluid (SGF), pH 1.8, simulated gastric fluid, thermodynamic from solid, SGF (pH=1.8), 24 h, read-out: Solubility in SGF 24 h",560 µg/mL
same,Solid form change,[5]; 25° C./60% RH,doesn't change; also recorded: No form change of Form CS2
same,Solid form change,[5]; 40° C./75% RH,doesn't change; also recorded: No form change of Form CS2
same,Solid form change,[5]; 60° C./75% RH,doesn't change; also recorded: No form change of Form CS2
O=C(Nc1nc2cccc(-c3ccc(CN4CCS(=O)(=O)CC4)cc3)n2n1)C1CC1 [Form D of free form],Stability,[2],Stability is poor. XRPD is tested after being placed at
same,Solubility in water,[3],solubility in water is 55.26 μg/mL. The yield is low and is
O=C(Nc1nc2cccc(-c3ccc(CN4CCS(=O)(=O)CC4)cc3)n2n1)C1CC1 [Form E of free form],Stability,[2],Stability is poor. XRPD is tested after being placed at
O=C(Nc1nc2cccc(-c3ccc(CN4CCS(=O)(=O)CC4)cc3)n2n1)C1CC1 [Form F of free form],Solubility in water,[3],The solubility is low. The solubility in water is 50.98 μg/mL
O=C(Nc1nc2cccc(-c3ccc(CN4CCS(=O)(=O)CC4)cc3)n2n1)C1CC1 [Form H of free form],Solubility in water,[3],solubility in water is 12.77 μg/mL.
"O=C(Nc1nc2cccc(-c3ccc(CN4CCS(=O)(=O)CC4)cc3)n2n1)C1CC1 [Pattern 4, reference compound]",Mechanical stability (crystalline form after grinding),[6],poor mechanical stability
same,Solubility in FaSSIF 1 h,[4]; listed as Patent Pattern 4,20 µg/mL
same,Solubility in FaSSIF 4 h,[4]; listed as Patent Pattern 4,20 µg/mL
same,Solubility in FaSSIF 24 h,[4]; listed as Patent Pattern 4,20 µg/mL
same,Solubility in FeSSIF 1 h,"[4]; FeSSIF pH=5.0, 1 h, listed as Patent Pattern 4",30 µg/mL
same,Solubility in FeSSIF 4 h,"[4]; FeSSIF pH=5.0, 4 h, listed as Patent Pattern 4",30 µg/mL
same,Solubility in FeSSIF 24 h,"[4]; FeSSIF pH=5.0, 24 h, listed as Patent Pattern 4",30 µg/mL
same,Solubility in SGF 1 h,"[4]; SGF (pH=1.8), listed as Patent Pattern 4",1020 µg/mL
same,Solubility in SGF 4 h,"[4]; SGF (pH=1.8), 4 h, listed as Patent Pattern 4",1070 µg/mL
same,Solubility in SGF 24 h,"[4]; SGF (pH=1.8), 24 h, listed as Patent Pattern 4",460 µg/mL
same,Solubility in water 1 h,"[4]; pure water, listed as Patent Pattern 4",20 µg/mL
same,Solubility in water 4 h,"[4]; pure water, 4 h, listed as Patent Pattern 4",10 µg/mL
same,Solubility in water 24 h,"[4]; pure water, 24 h, listed as Patent Pattern 4",10 µg/mL
